Among the data in patent publication US20240294479A1, “POLYMORPHS OF 2-(3,5-DICHLOROPHENYL)-L,3-BENZOXAZOLE-6-CARBOXYLIC ACID” (HONOUR LAB LIMITED, priority 2021, published 2024) are solubility and water solubility values, retold here.

Series [1] in a line: Solubility of Tafamidis crystalline forms in water at different pH. Format: physicochemical. The method, then: However the crystalline Forms of the present invention has water solubility greater than or equal to 3 μg/mL at pH 5 and below.
The solubility of Tafamidis crystallin Form HN3 in water at different pH is as follows: […]

For series [2] the following is noted: at pH 5 and below; EMEA scientific discussion; cited from earlier work.

As usually defined, the solubility is the dissolved amount per volume that the medium holds. High values mean much dissolved substance, low ones little dissolved substance.

Values after ≈ are worked out from the molar mass of the structure shown. Where only a bound is given, the exact number is not on record here.

With `O=C(O)c1ccc2nc(-c3cc(Cl)cc(Cl)c3)oc2c1` [Form HN3, 2-(3,5-dichlorophenyl)-1,3-benzoxazole-6-carboxylic acid], the solubility in series [1] (pH 3, aqueous buffer) turned out to be 3 µg/mL (≈ 9.74 µM); in series [1] (pH 4, aqueous buffer), 3 µg/mL (≈ 9.74 µM); in series [1] (pH 5, aqueous buffer), 3 µg/mL (≈ 9.74 µM).

As to `O=C(O)c1ccc2nc(-c3cc(Cl)cc(Cl)c3)oc2c1` [Tafamidis (Form 1), 2-(3,5-dichlorophenyl)-1,3-benzoxazole-6-carboxylic acid], the water solubility in series [2] was under 2 µg/mL.
